Data published in ChEMBL document CHEMBL2177042, “Design, synthesis, and antidiabetic activity of 4-phenoxynicotinamide and 4-phenoxypyrimidine-5-carboxamide derivatives as potent and orally efficacious TGR5 agonists” (J Med Chem, 2012).

Columns and labels:
Format in all cases: ADME, organism-based
[1] = Plasma concentration in ICR mouse at 50 mg/kg, po after 2.5 hrs; design: dose 50 mg/kg, route oral
[2] = Drug level in ICR mouse gall bladder at 50 mg/kg, po after 4.5 hrs; design: dose 50 mg/kg, route oral; details: read-out: Drug uptake
[3] = MRT in Sprague-Dawley rat at 5 mg/kg, po; design: dose 5 mg/kg, route oral; details: in vivo
[4] = Plasma concentration in ICR mouse at 50 mg/kg, po after 0.5 hrs; design: dose 50 mg/kg, route oral
[5] = Drug level in ICR mouse bile at 50 mg/kg, po after 1 hr; design: dose 50 mg/kg, route oral; details: read-out: Drug uptake
[6] = Tmax in Sprague-Dawley rat at 5 mg/kg, po; design: dose 5 mg/kg, route oral; details: in vivo
[7] = AUC (0 to 4.5 hrs) in ICR mouse bile at 50 mg/kg, po; design: time < 4.5 hr, dose 50 mg/kg, route oral
[8] = Drug level in ICR mouse gall bladder at 50 mg/kg, po after 2.5 hrs; design: dose 50 mg/kg, route oral; details: read-out: Drug uptake
[9] = Cmax in Sprague-Dawley rat at 5 mg/kg, po; design: dose 5 mg/kg, route oral; details: in vivo
[10] = AUC (0 to t) in Sprague-Dawley rat at 5 mg/kg, po; design: dose 5 mg/kg, route oral; details: plasma
[11] = Plasma concentration in ICR mouse at 50 mg/kg, po after 4.5 hrs; design: dose 50 mg/kg, route oral
[12] = Plasma concentration in ICR mouse at 50 mg/kg, po after 1 hr; design: dose 50 mg/kg, route oral
[13] = Drug level in ICR mouse bile at 50 mg/kg, po after 4.5 hrs; design: dose 50 mg/kg, route oral; details: read-out: Drug uptake
[14] = Half life in Sprague-Dawley rat at 5 mg/kg, po; design: dose 5 mg/kg, route oral; details: in vivo
[15] = Drug level in ICR mouse bile at 50 mg/kg, po after 0.5 hrs; design: dose 50 mg/kg, route oral; details: read-out: Drug uptake
[16] = Cmax in ICR mouse gall bladder at 50 mg/kg, po; design: dose 50 mg/kg, route oral
[17] = AUC (0 to 4.5 hrs) in ICR mouse plasma at 50 mg/kg, po; design: time < 4.5 hr, dose 50 mg/kg, route oral
[18] = Drug level in ICR mouse bile at 50 mg/kg, po after 2.5 hrs; design: dose 50 mg/kg, route oral; details: read-out: Drug uptake
[19] = AUC (0 to infinity) in Sprague-Dawley rat at 5 mg/kg, po; design: time infinity, dose 5 mg/kg, route oral; details: plasma
[20] = Cmax in ICR mouse plasma at 50 mg/kg, po; design: dose 50 mg/kg, route oral
[21] = AUC (0 to 4.5 hrs) in ICR mouse gall bladder at 50 mg/kg, po; design: time < 4.5 hr, dose 50 mg/kg, route oral
[22] = Drug level in ICR mouse gall bladder at 50 mg/kg, po after 0.5 hrs; design: dose 50 mg/kg, route oral; details: read-out: Drug uptake
[23] = Cmax in ICR mouse bile at 50 mg/kg, po; design: dose 50 mg/kg, route oral
[24] = Drug level in ICR mouse gall bladder at 50 mg/kg, po after 1 hr; design: dose 50 mg/kg, route oral; details: read-out: Drug uptake

concentration at 2.5 h [1]: 2000 nM
concentration at 4.5 h [2]: 217 ng/g
MRT [3]: 2.4 h
concentration at 0.5 h [4]: 3100 nM
concentration at 1 h [5]: 2100 nM
Tmax [6]: 0.9 h
AUC(0-t) at 4.5 h [7]: 3380 ng·h/mL
concentration at 2.5 h [8]: 306 ng/g
Cmax [9]: 56 ng/mL
AUC(0-t) [10]: 147 ng·h/mL
concentration at 4.5 h [11]: 510 nM
concentration at 1 h [12]: 2300 nM
concentration at 4.5 h [13]: 2000 nM
half-life [14]: 1.5 h
concentration at 0.5 h [15]: 1700 nM
Cmax [16]: 523 ng/g
AUC(0-t) at 4.5 h [17]: 3130 ng·h/mL
concentration at 2.5 h [18]: 2000 nM
AUC(0-inf) [19]: 155 ng·h/mL
Cmax [20]: 3600 nM
AUC(0-t) at 4.5 h [21]: 1290 ng·h/mL
concentration at 0.5 h [22]: 294 ng/g
Cmax [23]: 3700 nM
concentration at 1 h [24]: 393 ng/g
Compound: Cc1ccc(C)c(Oc2ccncc2C(=O)N2CCN(C3CC3)c3ccccc32)c1
